Data taken from paper PMC5099976 (ACS chemical biology, 2016).

Assays:
[1] = molecular target: A156T NS3/4A protease variant (Hepatitis C virus genotype 1a, UniProt P27958, A1182T/C1073S/C1078L/C1185S/I1043Q/I1044E/I1098T/L1039E/L1040E/L1047Q/N1200S/T1100M/T1173A/V1687N); assay type: binding; details: binding A156T protease; ITC at 25 °C
[2] = test system: A156T NS3/4A protease variant; assay type: binding, Hepatitis C Virus; details: A156T relative to WT; Table S4
[3] = molecular target: WT genotype 1a NS3/4A protease (Hepatitis C virus genotype 1a, UniProt P27958, C1073S/C1078L/C1185S/I1043Q/I1044E/I1098T/L1039E/L1040E/L1047Q/N1200S/T1100M/T1173A); experiment: Isothermal titration calorimetry, WT protease; assay type: binding; details: for Ki: WT protease, Table S4
[4] = binding WT protease, ITC at 25 °C

Compound	enthalpy of binding [1] [kcal/mol]	enthalpic change due to A156T mutation [2] [kcal/mol]	entropic loss due to A156T mutation [2] [kcal/mol]	Ki [3] [nM]	Ki ([3]; listed as P1–P3) [nM]	enthalpy of binding [3, 4] [kcal/mol]	entropic contribution to binding (−TΔS) [3, 4] [kcal/mol]
CCc1nc2ccc(OC)cc2nc1O[C@@H]1C[C@H]2C(=O)N[C@]3(C(=O)NS(=O)(=O)C4CC4)C[C@H]3/C=C\CCCCC[C@H](NC(=O)OC(C)(C)C)C(=O)N2C1 [5172-mcP1P3]	-6.3	-0.5	3.3	1.96	2	-5.8	-6.0
C=C[C@@H]1C[C@]1(NC(=O)[C@@H]1C[C@@H]2CN1C(=O)[C@H](C(C)(C)C)NC(=O)O[C@@H]1C[C@H]1CCCCCc1nc3ccc(OC)cc3nc1O2)C(=O)NS(=O)(=O)C1CC1 [MK-5172, reference compound]		2.7	2.2				
